Test results from EP3409278B1, “HETEROCYCLIC PROTEIN KINASE INHIBITORS” (Tolero Pharmaceuticals, Inc., priority 2011, dated 2013).
Read-outs that look alike come from different tables or passages of the source.

Legend:
Pim-1 kinase = Pim-1 kinase (Homo sapiens, UniProt P11309); experiment: Pim-1 kinase inhibition assay (Promega Kinase-Glo); assay type: biochemical
From the text: One illustrative manner in which Pim-1 kinase activity can be determined is by quantifying the amount of ATP remaining in solution after an in vitro Pim-1 kinase reaction. The Kinase-Glo Assay Kit (Promega, Inc., Madison, WI) allows this. The amount of ATP remaining in the solution after the kinase reaction serves as a substrate for the luciferase to catalyze luciferin to oxyluciferin plus one photon of light. Thus, the luminescent signal read by the Luminoskan Ascent Instrument (Thermo Electron Corp., Milford, MA) correlates with the amount of ATP present after the kinase reaction and inversely correlates with the amount of kinase acitivity. […] These assays are set up in duplicate 50ul volumes in white, flat bottom 96 well plates. […] This solution is incubated at 30 degrees Celsius at 360rpm for two hours. Following the incubation, 50ul of Kinase-Glo reagent is added to each well, including all positive and negative control wells, and incubated at room temperature for 15 minutes. […] The IC50 values can then be calculated for each inhibitor tested.

hERG = hERG (Homo sapiens, UniProt Q12809); experiment: hERG Fast Patch assay (WuXiApptec)
MV-4-11 = experiment: In vitro viability assay, MV-4-11; assay type: cell-based
Protocol: (§1) Adherent or suspension cancer cell lines were seeded at 2000-5000 cells/well in a 96-well plate, or 1000-2000 cells/well in a 384-well plate. Suspension cells were treated with drug the same day as seeding, while adherent cells were incubated overnight at 37°Cin 5% CO2 prior to drug treatment. All cells were treated for 72 hours, then lysed with ATPlite (Perkin Elmer) and measured on an Envision microplate reader. IC50 values were determined using GraphPad Prism software.
(§2) Over 35 cell lines were tested, and the most sensitive cell lines from various indications were selected and verified by multiple EC50 determinations (Figure 6). […] Antiproliferative activity using PIM-2 shRNA against FLT3-ITD driven leukemia lines has been observed (Adam (2006) Cancer Res 66:3828-35 data not shown).

MOLM-13 = experiment: In vitro viability assay, MOLM-13; assay type: cell-based
Protocol: as §1, §2

[1] = Table IV, Kinase-Glo, 10uM ATP, read-out: IC50 on Pim1

Sequence of hERG (Q12809 whole entry): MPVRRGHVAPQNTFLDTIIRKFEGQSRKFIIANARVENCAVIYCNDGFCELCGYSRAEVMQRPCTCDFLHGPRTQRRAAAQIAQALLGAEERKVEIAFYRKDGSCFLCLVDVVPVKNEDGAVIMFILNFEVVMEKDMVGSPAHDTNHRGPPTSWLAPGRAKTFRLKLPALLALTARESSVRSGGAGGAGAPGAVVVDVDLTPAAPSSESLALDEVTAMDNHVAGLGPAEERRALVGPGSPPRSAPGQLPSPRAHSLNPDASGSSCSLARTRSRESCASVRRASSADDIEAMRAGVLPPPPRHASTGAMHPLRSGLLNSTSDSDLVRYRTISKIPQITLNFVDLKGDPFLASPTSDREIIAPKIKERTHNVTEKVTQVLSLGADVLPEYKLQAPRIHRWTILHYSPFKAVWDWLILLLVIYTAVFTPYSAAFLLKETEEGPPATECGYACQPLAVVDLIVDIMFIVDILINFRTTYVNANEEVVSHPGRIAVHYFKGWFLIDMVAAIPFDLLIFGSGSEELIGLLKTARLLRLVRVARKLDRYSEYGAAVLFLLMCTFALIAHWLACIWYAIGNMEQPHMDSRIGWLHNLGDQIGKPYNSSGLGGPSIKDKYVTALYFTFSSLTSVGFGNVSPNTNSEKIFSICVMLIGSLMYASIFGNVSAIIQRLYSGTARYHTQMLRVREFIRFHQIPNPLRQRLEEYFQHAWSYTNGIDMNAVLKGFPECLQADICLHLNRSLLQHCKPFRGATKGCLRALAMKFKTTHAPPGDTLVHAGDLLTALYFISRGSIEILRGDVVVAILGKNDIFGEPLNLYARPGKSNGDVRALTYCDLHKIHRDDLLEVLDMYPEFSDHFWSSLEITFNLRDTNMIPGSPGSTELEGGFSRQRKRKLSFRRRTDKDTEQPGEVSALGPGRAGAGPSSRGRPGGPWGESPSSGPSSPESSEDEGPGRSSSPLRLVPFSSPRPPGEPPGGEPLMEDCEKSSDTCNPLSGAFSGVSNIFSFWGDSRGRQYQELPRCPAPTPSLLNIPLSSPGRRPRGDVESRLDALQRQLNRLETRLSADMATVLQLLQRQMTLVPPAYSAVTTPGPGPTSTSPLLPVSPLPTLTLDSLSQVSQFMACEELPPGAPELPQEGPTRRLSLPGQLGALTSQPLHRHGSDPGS
Sequence of Pim-1 kinase (P11309 whole entry): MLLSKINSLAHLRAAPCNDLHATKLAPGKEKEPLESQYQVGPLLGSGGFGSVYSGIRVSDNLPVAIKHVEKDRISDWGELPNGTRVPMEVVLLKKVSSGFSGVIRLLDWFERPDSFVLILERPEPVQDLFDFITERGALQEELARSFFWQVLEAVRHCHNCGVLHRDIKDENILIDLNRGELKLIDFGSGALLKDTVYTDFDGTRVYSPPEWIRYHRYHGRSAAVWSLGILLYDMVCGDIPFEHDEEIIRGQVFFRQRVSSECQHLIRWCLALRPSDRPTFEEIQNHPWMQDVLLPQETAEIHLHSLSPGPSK

IC50 (Pim-1 kinase; [1]) | SMILES | other results
68 nM | CO[C@H]1CC[C@H](Nc2ccn3ncc(-c4cccc(Cl)c4)c3n2)CC1 [8-64, 3-((3-Chlorophenyl)-N-4-methoxy-trans-cyclohexyl)pyrazolo[1,5-a]pyrimidin-5-amine] | IC50 (hERG): > 30000 nM
9 nM | CC(C)(O)[C@H]1CC[C@H](Nc2ccc3ncc(-c4cccc(OC(F)(F)F)c4)n3n2)CC1 [8-10] | IC50 (hERG): > 30000 nM
 | C[C@]1(O)CC[C@H](Nc2ccc3ncc(-c4cccc(OC(F)(F)F)c4)n3n2)CC1 [8-9, 1-Methyl-4-((3-(3-(trifluoromethoxy)phenyl)imidazo[1,2-b]pyridazin-6-yl)amino)-trans-cyclohexanol] | IC50 (hERG): 26000 nM
58 nM | O=S1(=O)CCC(CNc2ccc3ncc(-c4cccc(OC(F)(F)F)c4)n3n2)CC1 [8-13, 4-(((3-(3-(Trifluoromethoxy)phenyl)imidazo[1,2-b]pyridazin-6-yl)amino)methyl)tetrahydro-2H-thiopyran 1,1-dioxide] | IC50 (hERG): 10000 nM
132 nM | N[C@H]1CCCN(c2ccn3ncc(-c4cccc(OC(F)(F)F)c4)c3n2)C1 [8-53, (S)-1-(3-(3-(Trifluoromethoxy)phenyl)pyrazolo[1,5-a]pyrimidin-5-yl)piperidin-3-amine] | 
 | OCCN1CCC(CNc2ccc3ncc(-c4cccc(OC(F)(F)F)c4)n3n2)CC1 [8-27, 2-(4-(((3-(3-(Trifluoromethoxy)phenyl)imidazo[1,2-b]pyridazin-6-yl)amino)methyl)piperidin-1-yl)ethanol] | IC50 (Pim-1 kinase): 23 nM
17 nM | CC(C)(O)[C@H]1CC[C@H](Nc2ccn3ncc(-c4cccc(C(F)(F)F)c4)c3n2)CC1 [8-56] | 
53 nM | FC(F)(F)Oc1cccc(-c2cnc3ccc(NCC4CCSCC4)nn23)c1 [8-18, N-((tetrahydro-2H-thiopyran-4-yl)methyl)-3-(3-(trifluoromethoxy)phenyl)imidazo[1,2-b]pyridazin-6-amine] | 
10 nM | O[C@H]1C[C@H](CNc2ccc3ncc(-c4cccc(OC(F)(F)F)c4)n3n2)C1 [8-7, 3-(((3-(3-(Trifluoromethoxy)phenyl)imidazo[1,2-b]pyridazin-6-yl)amino)methyl)-trans-cyclobutanol] | 
 | CC(C)(O)[C@H]1CC[C@H](Nc2ccc3ncc(-c4cccc(C(F)(F)F)c4)n3n2)CC1 [SGI-9481] | sensitivity in viability assay (MV-4-11): particularly sensitive; sensitivity in viability assay (MOLM-13): particularly sensitive
197 nM | C[C@]1(O)CC[C@H](Nc2ccn3ncc(-c4cccc(OC(F)(F)F)c4)c3n2)CC1 [8-48, 1-Methyl-4-((3-(3-(trifluoromethoxy)phenyl)pyrazolo[1,5-a]pyrimidin-5-yl)amino)-trans-cvclohexanol] | 
54 nM | CC1(O)CCC(Nc2ccn3ncc(-c4cccc(C(F)(F)F)c4)c3n2)CC1 (single isomer, unassigned) [8-55, 1-Methyl-4-((3-(3-(trifluoromethyl)phenyl)pyrazolo[1,5-a]pyrimidin-5-yl)amino)-trans-cyclohexanol] | 
56 nM | CC(C)(O)[C@H]1CC[C@H](Nc2ccc3ncc(-c4cccc(F)c4)n3n2)CC1 [8-75, 2-(trans-4-((3-(3-fluorophenyl)imidazo[1,2-b]pyridazin-6-yl)amino)cyclohexyl)propan-2-ol] | 
66 nM | CO[C@H]1CC[C@H](Nc2ccn3ncc(-c4cccc(C(F)(F)F)c4)c3n2)CC1 [8-57, 4-(trans-Methoxycyclohexyl)-3-(3-(trifluoromethyl)phenyl)pyrazolo[1,5-a]pyrimidin-5-amine] | 
148 nM | O=S1(=O)CCC(CNc2ccn3ncc(-c4cccc(OC(F)(F)F)c4)c3n2)CC1 [8-51, 4-(((3-(3-(Trifluoromethoxy)phenyl)pyrazolo[1,5-a]pyrimidin-5-y/)amino)methyl)tetrahydro-2H-thiopyran 1,1-dioxide] | 
553 nM | FC(F)(F)Oc1cccc(-c2cnc3ccc(OCC4CCOCC4)nn23)c1 [8-28, 6-((Tetrahydro-2H-pyran-4-yl)methoxy)-3-(3-(trifluoromethoxy)phenyl)imidazo[1,2-b]pyridazine] | 
4 nM | N[C@H]1CC[C@H](Nc2ccc3ncc(-c4cccc(Cl)c4)n3n2)CC1 [8-68, N1-(3-(3-Chlorophenyl)imidazo[1,2-b]pyridazin-6-yl)cyclohexane-1,4-trans-diamine] | 
36 nM | O[C@@H]1CC[C@@H](Nc2ccc3ncc(-c4cccc(OC(F)(F)F)c4)n3n2)C1 [8-5, (1R,3R)3-((3-(3-(Trifluoromethoxy)phenyl)imidazo[1,2-b]pyridazin-6-yl)amino)cyclopentanol] | 
1630 nM | O=C1CC(CNc2ccc3ncc(-c4cccc(OC(F)(F)F)c4)n3n2)CCN1 (centres unmarked) [8-23, 4-(((3-(3-(Trifluoromethoxy)phenyl)imidazo[1,2-b]pyridazin-6-yl)amino)methyl)piperidin-2-one] | 
111 nM | O=S1(=O)CCC(CNc2ccn3ncc(-c4cccc(C(F)(F)F)c4)c3n2)CC1 [8-59, 4-(((3-(3-(Trifluoromethyl)phenyl)pyrazolo[1,5-a]pyrimidin-5-yl)amino)methyl)tetrahydro-2H-thiopyran 1,1-dioxide] | 
16 nM | CN(C)CC(=O)N1CCC(CNc2ccc3ncc(-c4cccc(OC(F)(F)F)c4)n3n2)CC1 [8-45, 2-(dimethylamino)-1-(4-(((3-(3-(trifluoromethoxy)phenyl)imidazo[1,2-b]pyridazin-6-yl)amino)methyl)piperidin-1-yl)ethanone] | 
18 nM | CO[C@H]1CC[C@H](Nc2ccc3ncc(-c4cccc(Cl)c4)n3n2)CC1 [8-38, 3-(3-Chlorophenyl)-N-(4-trans-methoxycyclohexyl)imidazo[1,2-b]pyridazin-6-amine] | 
